Results as given in US11958859B2, “Use of pyridoxal acetal salts as water-triggered pro-fragrances” (Florida Gulf Coast University Board of Trustees, priority 2018, dated 2024).

How the values were obtained:
[1] = Hydrolysis (acetal cleavage) of pyridoxal acetal salts in D2O/DMSO-d6, release of the alcohol monitored by time-dependent 1H NMR; format: physicochemical; conditions: for release of alcohol from the respective pyridoxal acetal: 0.2 M, 30% D2O in DMSO-d6, after 22 hours
Experimental: The hydrolysis of the target alcohol from the pyridoxal acetal salt in the presence of D2O was monitored by ^1H NMR spectroscopy. This was accomplished by comparing the formation of hemiacetal C—H peak to the loss of the acetal C—H peak. For substrate 3a, the integration of the acetal C—H peak at 6.58 ppm was compared to the integration of the pyridoxal hemiacetal C—H peak at 6.41 ppm hourly to determine conversion. A stack plot of the NMR spectra for 50% D2O solution in DMSO-d6 over 20 hours is illustrated in FIG. 2.
To determine the kinetics of the hydrolysis with respect to the concentration of water, acetal 3a was exposed to varying concentrations of D2O The release of ethanol from 3a was measured at concentrations of 25%, 35%, 50%, and 100% D2O in DMSO-d6 and is plotted in FIG. 3. […] The 100% D2O trial provides full cleavage after 10 hours whereas a lowest concentration of D2O (25%) provides the slowest release at only 28% cleaved after 25 hours. The 50% D2O trial provided 74% release after 25 hours and the 35% D2O trial provided 42% release.
The rate of release for ethanol (blue), isopropanol (red), 2-phenylethanol (green), and geraniol (purple) were monitored at a 0.2 M concentration of 30% D2O in DMSO-d6 from the respective pyridoxal acetal. […] In all cases, the acetals hydrolyze to release the target molecule and pyridoxal HCl quantitatively. Since other fragrance delivery systems can lose material in side reactions (H. Q. N. Gunaratne et al., Chem. Commun., 2015, 51, 4455), the high fidelity in the release for these alcohols is significant.
The acetal cleavage was measured by comparing the integration of Ha to Hb whereas Hb/(Ha+Hb) provides the percent completion for the acetal cleavage for 3a and 3b. The stack plots in FIGS. 7-11 provide a visual counterpart to the graphs. 3c had some overlap between Ha and Hb so the fully separated methyl groups of the isopropyl were integrated instead.
3a (0.1636 mmol) was dissolved in 0.4 mL of DMSO-d6 (except for 100% D2O) and varying amounts of D2O were added, as shown in the table below (see corresponding stack plots in FIGS. 7-11).

| SMILES | release of alcohol from the respective pyridoxal acetal [1] [%] | acetal cleaved (release of ethanol) ([1]; 25% D2O in DMSO-d6, after 25 hours) [%] | dependence of release rate on water concentration ([1]; 25%, 35%, 50%, 100% D2O in DMSO-d6, FIG. 3) | release of ethanol ([1]; 35% D2O in DMSO-d6 (time not restated; 25 hours implied)) [%] | release of ethanol ([1]; 50% D2O in DMSO-d6, after 25 hours) [%] | cleavage of acetal (release of ethanol) ([1]; 100% D2O, after 10 hours, 1H NMR) | melting point [°C] |
| --- | --- | --- | --- | --- | --- | --- | --- |
| CCOC1OCc2cnc(C)c(O)c21.Cl (stereo not shown) [3a, 1-ethoxy-7-hydroxy-6-methyl-1,3-dihydrofuro[3,4-c]pyridin-5-ium chloride] | 35 | 28 | rate increases with higher concentrations of D2O | 42 | 74 | full cleavage | 97 to 103 |
| Cc1ncc2c(c1O)C(OC(C)C)OC2.Cl (stereo not shown) [3c, 7-hydroxy-1-isopropoxy-6-methyl-1,3-dihydrofuro[3,4-c]pyridin-5-ium chloride] | 37 | – | – | – | – | – | 116 to 121 |
| Cc1ncc2c(c1O)C(OCCc1ccccc1)OC2.Cl (stereo not shown) | – | – | – | – | – | – | 168 to 172 |
